How the values were obtained:
Format in all cases: biochemical
gelatinase (MMP-2) = molecular target: T1, gelatinase (MMP-2) (Homo sapiens, UniProt P08253); test: metalloprotease activity assay by a published procedure (J. Duan, WO/0059285), gelatinase; conditions: read-out: Ki, inhibitory activity against gelatinase (MMP-2)
T1 sequence (P08253 110-660): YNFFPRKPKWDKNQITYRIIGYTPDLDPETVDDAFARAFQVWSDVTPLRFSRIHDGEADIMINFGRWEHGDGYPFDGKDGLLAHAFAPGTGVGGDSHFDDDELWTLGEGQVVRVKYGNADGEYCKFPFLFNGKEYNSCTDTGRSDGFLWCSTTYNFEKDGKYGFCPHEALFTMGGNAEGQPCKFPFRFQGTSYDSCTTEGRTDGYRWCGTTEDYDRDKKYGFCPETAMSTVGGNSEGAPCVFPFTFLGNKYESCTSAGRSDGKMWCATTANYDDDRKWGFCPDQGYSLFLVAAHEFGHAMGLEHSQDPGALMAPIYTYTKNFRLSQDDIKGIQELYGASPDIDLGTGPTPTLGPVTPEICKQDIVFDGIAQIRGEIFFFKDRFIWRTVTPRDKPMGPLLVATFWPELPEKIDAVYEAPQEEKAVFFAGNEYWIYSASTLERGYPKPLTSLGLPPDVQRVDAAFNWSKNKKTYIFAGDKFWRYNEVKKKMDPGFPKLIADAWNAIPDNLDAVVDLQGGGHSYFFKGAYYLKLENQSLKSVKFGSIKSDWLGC
Procedure: (§1) Compounds of the present invention were assayed for metalloprotease activity by a published procedure (see, for example, J. Duan, WO/0059285). […] (Whittaker, M. et al. Chem. Rev. 1999 99:2735; Borkakoti, N. et al. Struct. Biol. 1994 1:106)

[1] = molecular target: membrane type 2 matrix metalloprotease (MMP-15) (Homo sapiens, UniProt P51511); test: metalloprotease activity assay by a published procedure (J. Duan, WO/0059285), membrane type 2 MMP; conditions: read-out: Ki, inhibitory activity against membrane type 2 matrix metalloprotease (MMP-15)
Chain of membrane type 2 matrix metalloprotease (MMP-15) (P51511 132-669, species assumed): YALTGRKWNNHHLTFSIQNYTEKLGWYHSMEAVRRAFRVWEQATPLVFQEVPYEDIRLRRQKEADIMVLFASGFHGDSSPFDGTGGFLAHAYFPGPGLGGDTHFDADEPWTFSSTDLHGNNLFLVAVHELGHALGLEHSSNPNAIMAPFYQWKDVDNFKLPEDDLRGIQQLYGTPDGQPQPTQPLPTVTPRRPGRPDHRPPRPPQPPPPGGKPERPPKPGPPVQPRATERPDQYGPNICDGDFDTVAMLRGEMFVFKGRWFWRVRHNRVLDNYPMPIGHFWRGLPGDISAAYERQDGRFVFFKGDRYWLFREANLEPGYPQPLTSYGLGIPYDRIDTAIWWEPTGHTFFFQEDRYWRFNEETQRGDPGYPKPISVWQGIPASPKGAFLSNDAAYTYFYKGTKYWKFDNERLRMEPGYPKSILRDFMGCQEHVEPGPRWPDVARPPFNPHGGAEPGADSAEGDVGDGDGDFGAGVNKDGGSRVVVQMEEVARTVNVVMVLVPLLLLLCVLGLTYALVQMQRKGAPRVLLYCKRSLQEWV
Procedure: as §1

matrilysin (MMP-7) = molecular target: T2, matrilysin (MMP-7) (Homo sapiens, UniProt P09237); test: metalloprotease activity assay by a published procedure (J. Duan, WO/0059285), matrilysin; conditions: read-out: Ki, inhibitory activity against matrilysin (MMP-7)
T2 sequence (P09237 95-267): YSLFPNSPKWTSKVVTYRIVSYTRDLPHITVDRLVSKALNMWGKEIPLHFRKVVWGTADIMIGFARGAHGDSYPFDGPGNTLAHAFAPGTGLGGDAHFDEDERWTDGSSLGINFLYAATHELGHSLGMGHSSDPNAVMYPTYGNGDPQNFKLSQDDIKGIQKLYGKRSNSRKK
Procedure: as §1

`CCOC(=O)C(C)C1=CNC(CC(C)C)(C2=CNC(CC(=O)NO)(CC(C)C)C2=O)C1=O` (single isomer, unassigned; (-)) [(−)-1a, Bispyrrolinone Hydroxamic Acid] gave a Ki (gelatinase (MMP-2)) of 2.9 µM, a Ki [1] of 6.8 µM and a Ki (matrilysin (MMP-7)) of 6.4 µM.

— patent US6455570B1, “Polypyrrolinone based inhibitors of matrix metalloproteases” (The Trustees of the University of Pennsylvania, priority 2000, dated 2002)
